Data published in publication PMC2943038 (Chemical communications (Cambridge, England), 2010).
Where two headings read alike, the source gives them in different places.

Key:
PAD3 = target: T1, PAD3 (Homo sapiens, UniProt Q9ULW8); experiment: biochemical
T1 sequence (Q9ULW8 1-664): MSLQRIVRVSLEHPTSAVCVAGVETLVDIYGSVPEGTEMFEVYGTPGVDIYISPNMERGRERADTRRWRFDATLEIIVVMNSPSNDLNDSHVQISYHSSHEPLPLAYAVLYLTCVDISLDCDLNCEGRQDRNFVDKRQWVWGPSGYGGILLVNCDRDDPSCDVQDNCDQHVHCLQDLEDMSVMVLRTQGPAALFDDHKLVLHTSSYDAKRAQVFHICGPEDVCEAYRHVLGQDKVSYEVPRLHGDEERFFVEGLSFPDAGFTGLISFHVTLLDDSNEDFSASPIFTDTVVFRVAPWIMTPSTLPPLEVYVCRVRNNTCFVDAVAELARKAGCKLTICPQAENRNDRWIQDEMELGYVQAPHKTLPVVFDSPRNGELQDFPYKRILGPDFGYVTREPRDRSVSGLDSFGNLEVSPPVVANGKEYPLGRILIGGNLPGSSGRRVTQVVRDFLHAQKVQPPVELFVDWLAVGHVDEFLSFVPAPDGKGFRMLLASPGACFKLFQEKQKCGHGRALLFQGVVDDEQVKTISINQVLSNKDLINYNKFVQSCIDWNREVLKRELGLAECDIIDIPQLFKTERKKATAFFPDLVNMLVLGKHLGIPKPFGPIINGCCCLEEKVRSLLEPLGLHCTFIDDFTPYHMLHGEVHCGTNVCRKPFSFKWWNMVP

PAD2 [1] = target: T2, PAD2 (Homo sapiens, UniProt Q9Y2J8); settings: PAD4 over PAD2, relative values of kinact/KI
PAD4 [2] = target: T3, PAD4 (Homo sapiens, UniProt Q9UM07); experiment: fluopol-ABPP HTS
MCF-7 cells = experiment: histone H3 citrullination Western blot in MCF-7 cells; format: cell-based; settings: MCF7 cells; anti-citrulline histone H3 Western blot; 1, 10, or 100 nM, dose dependent
PAD1 = target: T4, PAD1 (Homo sapiens, UniProt Q9ULC6); experiment: PAD1 inhibition/inactivation, residual activity measured with BAEE
T4 sequence (Q9ULC6 1-663): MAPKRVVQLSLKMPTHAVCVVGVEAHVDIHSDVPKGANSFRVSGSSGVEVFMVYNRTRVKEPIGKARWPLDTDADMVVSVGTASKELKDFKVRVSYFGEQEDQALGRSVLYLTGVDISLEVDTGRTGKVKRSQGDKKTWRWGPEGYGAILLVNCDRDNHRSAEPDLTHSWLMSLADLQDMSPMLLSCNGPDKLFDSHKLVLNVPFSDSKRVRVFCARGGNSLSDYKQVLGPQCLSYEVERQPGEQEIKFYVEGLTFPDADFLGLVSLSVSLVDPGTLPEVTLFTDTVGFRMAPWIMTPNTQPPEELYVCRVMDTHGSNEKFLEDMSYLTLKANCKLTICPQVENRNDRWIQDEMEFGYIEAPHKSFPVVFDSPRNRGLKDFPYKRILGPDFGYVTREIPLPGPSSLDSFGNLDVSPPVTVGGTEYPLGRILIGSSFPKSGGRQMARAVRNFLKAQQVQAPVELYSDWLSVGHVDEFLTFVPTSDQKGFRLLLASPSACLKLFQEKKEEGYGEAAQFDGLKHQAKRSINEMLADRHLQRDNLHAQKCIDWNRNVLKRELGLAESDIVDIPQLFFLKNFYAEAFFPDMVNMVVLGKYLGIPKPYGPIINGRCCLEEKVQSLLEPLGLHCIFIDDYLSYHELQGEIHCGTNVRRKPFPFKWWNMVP

PAD4 [3] = target: T3, PAD4; experiment: PAD4 inhibition/inactivation, residual activity measured with BAEE; format: biochemical
PAD2 [4] = target: T2, PAD2; experiment: biochemical
PAD4 [5] = target: T3, PAD4; experiment: gel-based ABPP secondary screen
HL-60 granulocytes = experiment: histone H3 citrullination Western blot in HL-60 granulocytes; format: cell-based; settings: anti-citrulline histone H3 Western blot, 1, 10, or 100 nM, dose dependent

T3 sequence (Q9UM07 whole entry): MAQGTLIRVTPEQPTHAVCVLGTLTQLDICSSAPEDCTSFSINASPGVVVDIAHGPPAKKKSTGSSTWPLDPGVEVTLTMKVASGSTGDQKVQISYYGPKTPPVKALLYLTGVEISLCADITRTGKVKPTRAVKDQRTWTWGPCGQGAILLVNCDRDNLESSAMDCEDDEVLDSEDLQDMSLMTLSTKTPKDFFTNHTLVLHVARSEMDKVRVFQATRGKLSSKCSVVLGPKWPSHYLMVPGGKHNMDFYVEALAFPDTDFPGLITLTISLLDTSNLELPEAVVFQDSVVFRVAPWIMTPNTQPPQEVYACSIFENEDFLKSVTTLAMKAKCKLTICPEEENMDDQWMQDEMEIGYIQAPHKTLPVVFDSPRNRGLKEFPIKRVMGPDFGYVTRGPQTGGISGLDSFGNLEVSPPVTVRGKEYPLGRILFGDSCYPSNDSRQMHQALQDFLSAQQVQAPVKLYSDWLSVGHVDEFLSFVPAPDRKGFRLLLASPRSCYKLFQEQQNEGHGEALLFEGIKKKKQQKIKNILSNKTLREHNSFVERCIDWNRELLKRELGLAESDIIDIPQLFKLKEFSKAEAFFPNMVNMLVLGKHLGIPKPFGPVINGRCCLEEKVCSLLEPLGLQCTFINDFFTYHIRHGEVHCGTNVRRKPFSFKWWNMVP
T2 sequence (Q9Y2J8 whole entry): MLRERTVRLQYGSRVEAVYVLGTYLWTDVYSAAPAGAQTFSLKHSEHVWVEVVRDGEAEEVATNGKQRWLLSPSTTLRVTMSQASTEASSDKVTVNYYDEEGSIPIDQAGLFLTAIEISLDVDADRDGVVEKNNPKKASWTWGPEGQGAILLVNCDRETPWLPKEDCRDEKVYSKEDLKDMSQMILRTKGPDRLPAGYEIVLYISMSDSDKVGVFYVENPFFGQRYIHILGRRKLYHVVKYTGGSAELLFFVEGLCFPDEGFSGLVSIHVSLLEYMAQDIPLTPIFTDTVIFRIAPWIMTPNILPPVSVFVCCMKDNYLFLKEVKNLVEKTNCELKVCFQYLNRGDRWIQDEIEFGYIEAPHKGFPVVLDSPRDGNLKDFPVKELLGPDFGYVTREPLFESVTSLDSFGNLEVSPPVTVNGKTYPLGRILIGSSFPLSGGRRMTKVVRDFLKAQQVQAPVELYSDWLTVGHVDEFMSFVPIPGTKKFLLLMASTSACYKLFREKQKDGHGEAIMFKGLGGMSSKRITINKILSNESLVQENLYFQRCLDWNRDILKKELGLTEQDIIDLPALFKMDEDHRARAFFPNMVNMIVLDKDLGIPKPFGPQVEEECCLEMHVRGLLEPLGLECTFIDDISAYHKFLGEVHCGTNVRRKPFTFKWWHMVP

Row | SMILES | Ki (PAD3) | Fold selectivity (PAD2 [1]) | inhibition at 5 µM (PAD4 [2]; read-out: % Inhibition (library screen)) | concentration that reduced levels of citrullinated histone H3 (MCF-7 cells) | Ki (PAD1) | IC50 (PAD4 [3]) | Ki (PAD4 [3]) | PAD4 activity recovered after dialysis (reversibility) (PAD4 [3]; incubated with PAD4 for 30 min, dialyzed overnight (~20 h)) | Ki (PAD2 [4]) | inhibition at 10 µM (PAD4 [5]; read-out: % Inhibition (Gel based ABPP)) | concentration that reduced levels of citrullinated histone H3 (HL-60 granulocytes) | % Inhibition (library screen) (PAD4 [2]; 5 μM compound final, 2 μM PAD4, 75 nM RFA, 300 min) | IC50 (PAD4 [3]; read-out: IC50 for PAD4, Table 1, hits of the HTS) | % Inhibition (Gel based ABPP) (PAD4 [5]; 10 μM final, inhibition of RFA labeling of PAD4)
1 | COC1=C(N)C(=O)c2nc(-c3nc(C(=O)O)c(C)c(-c4ccc(OC)c(OC)c4O)c3N)ccc2C1=O [NIH6, streptonigrin] | 49 ± 34 µM | 37 fold | 92.5% | ≤ 1 nM | 11 ± 7 µM | 1.87 ± 0.24 µM | 8.5 ± 4.3 µM | no PAD4 activity was recovered | 17 ± 5.8 µM | 93.9% | ≤ 1 nM | – | – | –
2 | Cc1ccc(S(=O)(=O)N[C@@H](Cc2ccccc2)C(=O)CCl)cc1 [NIH5, tosyl phenylalanyl chloromethyl ketone] | – | – | – | – | – | – | – | – | – | – | – | 39.7% | 13 ± 2 µM | 12.9%
